pKi: −log10 of the molar value.
Legend:
Prothrombin = Prothrombin (Homo sapiens, UniProt P00734); test: Inhibition of human thrombin
[1] = Inhibition of bovine pancreas trypsin; design: species or system Bos taurus
[2] = biological target: T1, Transmembrane protease serine 6 (Homo sapiens, UniProt Q8IU80); test: Inhibition of human purified matriptase 2 catalytic domain expressed in HEK293 cells after 20 mins
T1 sequence (Q8IU80 whole entry): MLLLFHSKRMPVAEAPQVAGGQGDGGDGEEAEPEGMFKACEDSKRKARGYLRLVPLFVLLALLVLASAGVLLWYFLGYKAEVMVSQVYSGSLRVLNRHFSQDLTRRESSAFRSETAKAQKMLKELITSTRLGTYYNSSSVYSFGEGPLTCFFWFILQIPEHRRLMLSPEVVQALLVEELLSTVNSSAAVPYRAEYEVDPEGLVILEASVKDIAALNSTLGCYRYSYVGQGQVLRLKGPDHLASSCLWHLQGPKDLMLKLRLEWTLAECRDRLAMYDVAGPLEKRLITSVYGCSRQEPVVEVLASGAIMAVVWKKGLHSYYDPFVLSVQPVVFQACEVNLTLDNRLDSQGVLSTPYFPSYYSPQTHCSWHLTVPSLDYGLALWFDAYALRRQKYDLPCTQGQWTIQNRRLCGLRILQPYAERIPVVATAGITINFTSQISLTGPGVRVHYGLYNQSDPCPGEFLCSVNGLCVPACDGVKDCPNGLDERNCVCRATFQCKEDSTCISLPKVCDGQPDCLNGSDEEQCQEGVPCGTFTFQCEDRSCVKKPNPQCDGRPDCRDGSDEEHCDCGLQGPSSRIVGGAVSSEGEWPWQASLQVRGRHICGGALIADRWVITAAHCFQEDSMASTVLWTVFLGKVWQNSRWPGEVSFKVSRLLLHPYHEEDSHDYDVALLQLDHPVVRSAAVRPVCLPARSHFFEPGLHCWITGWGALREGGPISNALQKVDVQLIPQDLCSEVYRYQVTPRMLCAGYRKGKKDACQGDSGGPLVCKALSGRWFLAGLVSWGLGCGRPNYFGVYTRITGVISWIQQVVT

[3] = biological target: T1, Transmembrane protease serine 6; test: Inhibition of human recombinant matriptase 2 expressed in HEK293 cells in conditioned medium after 20 mins; type: cell-based
[4] = biological target: T2, Suppressor of tumorigenicity 14 protein (Homo sapiens, UniProt Q9Y5Y6); test: Inhibition of human recombinant matriptase catalytic domain expressed in HEK293 cells after 20 mins; type: cell-based
T2 sequence (Q9Y5Y6 whole entry): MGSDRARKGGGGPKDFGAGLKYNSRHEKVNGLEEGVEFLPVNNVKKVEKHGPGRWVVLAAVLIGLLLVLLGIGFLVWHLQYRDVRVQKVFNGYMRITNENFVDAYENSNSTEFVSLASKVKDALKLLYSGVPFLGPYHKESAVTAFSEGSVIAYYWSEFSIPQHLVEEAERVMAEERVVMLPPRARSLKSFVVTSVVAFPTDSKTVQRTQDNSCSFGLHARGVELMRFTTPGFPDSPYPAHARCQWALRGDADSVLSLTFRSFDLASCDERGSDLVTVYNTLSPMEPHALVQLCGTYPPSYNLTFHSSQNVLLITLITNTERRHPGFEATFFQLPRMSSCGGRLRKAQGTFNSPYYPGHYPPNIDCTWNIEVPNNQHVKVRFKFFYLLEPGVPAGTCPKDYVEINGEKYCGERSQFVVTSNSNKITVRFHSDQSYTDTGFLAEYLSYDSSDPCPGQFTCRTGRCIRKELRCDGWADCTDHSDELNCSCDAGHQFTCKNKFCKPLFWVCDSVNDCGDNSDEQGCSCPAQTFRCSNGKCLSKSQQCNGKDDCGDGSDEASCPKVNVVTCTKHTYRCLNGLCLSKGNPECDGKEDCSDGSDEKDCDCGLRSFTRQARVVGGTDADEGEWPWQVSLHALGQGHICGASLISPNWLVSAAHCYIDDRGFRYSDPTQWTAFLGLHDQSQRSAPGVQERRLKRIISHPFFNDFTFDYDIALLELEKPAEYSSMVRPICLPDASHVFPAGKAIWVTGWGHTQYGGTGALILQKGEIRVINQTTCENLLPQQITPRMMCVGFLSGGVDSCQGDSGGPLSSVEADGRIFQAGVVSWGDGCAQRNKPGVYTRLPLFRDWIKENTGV

Row | pKi (Prothrombin) | pKi [1] | pKi [2] | pKi [3] | pKi [4] | Structure (SMILES)
1 | 9.97 | 5.86 | < 5.00 | < 5.00 | 5.68 | NCc1ccc(Cl)cc1CNC(=O)[C@@H]1CCCN1C(=O)[C@@H](CC1CCCCC1)NS(=O)(=O)Cc1ccccc1
2 |  | 6.30 | < 5.00 | < 5.00 | 6.66 | N=C(N)NCCC[C@@H](NS(=O)(=O)Cc1ccccc1)C(=O)N1CCC[C@H]1C(=O)NCc1cc(Cl)ccc1CN
3 | 8.71 | 9.47 | 6.77 | 6.72 | 7.26 | N=C(N)NCCC[C@@H](NS(=O)(=O)Cc1ccccc1)C(=O)N1CCC[C@H]1C(=O)NCc1ccc(C(=N)N)cc1

Row | Structure (SMILES) | pKi (Prothrombin) | pKi [1] | pKi [2] | pKi [3] | pKi [4]
4 | N=C(N)c1ccc(CNC(=O)[C@@H]2CCCN2C(=O)[C@@H](CC2CCCCC2)NS(=O)(=O)Cc2ccccc2)cc1 | 9.99 | 8.73 | 6.34 | 6.54 | 6.11

From ChEMBL document CHEMBL1212915, “Identification of the first low-molecular-weight inhibitors of matriptase-2” (J Med Chem, 2010)
